According to US20180200331A1, “BST-2 AS A THERAPEUTIC TARGET AND DIAGNOSTIC MARKER FOR BREAST CANCER GROWTH AND METASTASIS” (University of Iowa Research Foundation, priority 2015, published 2018):

Legend:
[1] = tested on: E0771 cells; experiment: Orthotopic implantation of E0771 cells in C57BL/6 mice; type: in vivo
Description: (§1) Five-week-old C57BL/6NCr and BALB/cAnNCr female mice were used. Mice were sacrificed when they became moribund. Tumor volume (TV) was calculated as: TV=0.5(length*width2). Tumor latency was calculated as the number of tumor-free injected mice/number of injected mice×100. To assess morbidity, the following clinical score ranking was used: (0) no abnormal clinical signs, (1) ruffled fur but lively, (2) ruffled fur, activity level slowing, sick, (3) ruffled fur, eyes squeezed shut, hunched, hardly moving, very sick, (4) moribund and (5) dead. Experiments involving mice were approved by the University of Iowa Animal Care and Use Committee (IACUC).
(§2) Prior to imaging, mice were anesthetized, weighed and injected intraperitoneally with D-luciferin. Mice were imaged using the Xenogen IVIS three dimensional optical imaging system (Caliper Life Sciences, Hopkinton, Mass., USA). Luciferase was quantified with Living Image Software (Caliper Life Sciences).

[2] = tested on: E0771 and 4T1 cells; experiment: BrdU assay; type: cell-based, mouse
Description: A total of 5,000 cells were plated in 96-well plates for 24 hours. Bromodeoxyuridine or 5-bromo-2′-deoxyuridine (BrdU) (Calbiochem, Billerica, Mass., USA) assay was carried out according to the manufacturer's instructions. Absorbance at 450 nm was read using a Tecan Infinite plate reader. In parallel, 150,000 cells were plated in 24-well plates for 24 hours. Cells were incubated with BrdU label (1:2000) for 20 hours, treated with a fixative/denaturing solution (30 minutes) and incubated with an anti-BrdU antibody (1:1000) and rat anti-mouse BST-2 antibody (1:200, eBioscience) for 1 hour at room temperature. Cells were washed and incubated with Alexa Fluor 594 anti-rat (Invitrogen, Waltham, Mass., USA) and Alexa Fluor 488 anti-mouse (Invitrogen) secondary antibodies for 30 minutes at room temperature. Cells were stained with 4′,6-diamidino-2-phenylindole (DAPI)-containing Vectashield (Vector Laboratories, Burlingame, Calif., USA) and imaged using a Zeiss 710 confocal microscope (Carl Zeiss, Oberkochen, Germany). Images were processed using Image J software. BrdU label, fixative/denaturing solution, and anti-BrdU antibody were from BrdU (Calbiochem) assay.

[3] = tested on: mammary cancer cells; experiment: Transformation assay (soft agar colony formation); type: cell-based, mouse; details: compared to shControl
Description: Agar was mixed in Roswell Park Memorial Institute medium (RPMI) with 20% FBS. A total of 500 μl of 0.5% agar was added to 24-well plate and allowed to solidify. Cells were plated at 1,250 cells/well in 500 μl of 0.35% agarose. Some 250 μl of the appropriate growth medium was added on top of the agarose layer. Growth medium was replaced twice a week. Colonies were stained with crystal violet and imaged. Colonies from five different fields were counted and averaged.

[4] = tested on: 4T1 cells; experiment: Tail vein injection of 4T1 cells, lung metastasis; type: in vivo, BALB/c mice
Description: Metastatic tumors were generated by implanting 300,000 4T1 shControl, sh413 or sh413 WT cells in 100 μl of PBS via tail vein in five-week-old female mice. Prior to imaging, mice were anesthetized, weighed and injected intraperitoneally with D-luciferin. Mice were imaged using the Xenogen IVIS three-dimensional optical imaging system (Caliper Life Sciences). Moreover, lung metastatic tumors were imaged post-mortem and counted grossly. Moreover, spleens from shControl, sh413, or sh413 WT injected mice were isolated and weighted. Average splenic weight was calculated from 3 different mice and plotted in a bar graph. Finally, Kaplan-Meier survival plots were generated and analyzed using the Gehan-Breslow-Wilcoxon test (GraphPrism) (FIG. 44).
Protein from lungs of mice injected with 4T1 shControl, sh413, or sh413 WT cells via tail vein was isolated to perform western blots blotting for total levels of BIM, levels of activated Caspase-3 (Cleaved Caspase-3) and GAPDH. Bands from 3 different western blots were normalized to GAPDH, quantified, averaged and depicted as bar graphs (FIG. 45).

[5] = tested on: 4T1 cells; experiment: Collagen and fibronectin adhesion assay; type: cell-based, mouse; details: pre-coated plates, 4 hours
Description: Ninety-six-well plates were coated with 50 μg/ml of collagen or fibronectin. Plates were incubated at 37° C. for 2 hours. Nonspecific sites were blocked with 40 μl of 2 mg/ml bovine serum albumin (BSA) in PBS. Wells were washed once with PBS. Cancer cells were labeled with PKH67 Green fluorescent cell linker, following the manufacturer's instructions (Sigma-Aldrich). Labelled cells were added to pre-coated wells (20,000 cells/well) and allowed to adhere for 4 hours. Non-adhered cells were washed off with PBS and plates were read at 485 nm/535 nm (excitation/emission) wavelengths using a Tecan Infinite M200 Pro plate reader (Tecan, Maennedorf, Switzerland). Values are represented as relative fluorescence unit.

[6] = tested on: mammary cancer cells; experiment: Scratch assay; type: cell-based, mouse; details: 6 h and 24 h
Description: Confluent monolayers of cancer cells plated in 12-well plates were scratched using a pipette tip. Fresh medium was added to the wells. Cells were allowed to migrate for 0, 6 or 24 hours before fixation (4% paraformaldehyde (PFA) for 45 minutes). Fixed cells were washed (1×PBS) and imaged with a Nikon Eclipse Ti microscope adjusted with a Nikon digital sight camera (Nikon, Tokyo, Japan). Images were processed and migrated cells counted using Image J software.

[7] = tested on: 4T1 cells; experiment: Orthotopic implantation of 4T1 cells in BALB/c mice; type: in vivo
Description: as §1, §2

[8] = tested on: E0771 or 4T1 cells; experiment: Cell invasion assay (Matrigel); type: cell-based, mouse; details: 24 h
Description: The apical chamber of 24-well cell culture inserts (Merck Millipore) were coated with 3 mg/ml of Matrigel (100 μl) (Sigma-Aldrich) and allowed to solidify for 5 hours. A total of 100,000 sh413- or shControl-transduced E0771 or 4T1 cells in serum-free medium were plated on top of the Matrigel layer. Culture medium containing 10% FBS and 5 μg/ml fibronectin (adhesive substrate) (Sigma-Aldrich) was added to the basal chamber of the unit (600 μl) and cells were allowed to invade through the membranous barrier for 24 hours at 37° C. Noninvasive cells were washed off; invasive cells were fixed with 4% PFA, permeabilized with 100% methanol, labeled with Giemsa stain and imaged as described in the previous paragraph. Images were processed using Image J software. Cells from five different fields were counted and averaged.

sh413: BST-2-targeting shRNA (SEQ ID NO:4), delivered by lentiviral particles (CCGGGCTTGAGAATGAAGTCACGAACTCGAGTTCGTGACTTCATTCTCAAGCTTTTTG)
median overall survival (OS) ([1]; Kaplan-Meier): 23 days | survival area under the curve (AUC) ([1]; Kaplan-Meier): 2,679 | malignant ascites ([1]; n=10): prevented the development of malignant ascites | cell proliferation (BrdU incorporation) [2]: no effect on cell proliferation | colony numbers in soft agar [3]: reduced colony numbers | levels of pro-apoptotic factors (BIM, Caspase-3) in the lungs ([4]; tail vein injected mice): elevates levels of pro-apoptotic factors | lung metastasis ([4]; tail vein, 42 days): decreases lung metastasis in vivo | adhesion to collagen [5]: reduced adhesive capability | adhesion to fibronectin [5]: reduced adhesive capability | migration into scratch wound [6]: lost the ability to migrate | median overall survival (OS) ([7]; Kaplan-Meier): undefined | survival area under the curve (AUC) ([7]; Kaplan-Meier): 3,900 | number of tumors in intestine and mesentery ([7]; average of all mice): six | mammary tumor latency ([7]; compared to shControl cells): increased mammary tumor latency | tumor volume over time ([7]; compared to shControl tumors): significantly lower | mice survived to end of experiment ([7]; day 45): 14 out of 15 | incidence of metastases to the liver ([7]; mouse, in vivo): 46% | incidence of metastases to the lung ([7]; mouse, in vivo): 40% | mice spared of ascites and splenomegaly ([7]; mouse, in vivo): 14 out of 15 | average tumor mass ([7]; n=15, at necropsy): 0.37 g | invasion through Matrigel [8]: reduced the ability of the cells to invade the basement membrane
